From PMC8247886, “Getting a Grip on the Undrugged: Targeting β‐Catenin with Fragment‐Based Methods” (Chemmedchem, 2021)
Converted amounts (≈) assume the structure as drawn.

What was measured:
[1] = Solubility in NMR buffer at pH 7.5 by quantitative NMR (maleic acid external standard); type: physicochemical; conditions: NMR buffer (Tris/NaCl with 2% DMSO-d6), aqueous buffer, kinetic from dmso stock; NMR buffer pH 7.5; intended concentration 500 or 2000 μM; read-out: Solub. pH 7.5
Experimental: buffer (Tris 25 mM, pH 7.5, NaCl 150 mM) containing 2% DMSO-d6. […]
Solubility of compounds was determined in NMR buffer at pH 7.5 (see above) by integrating the
signal of 250 µM maleic acid as an external standard relative to the integrals of the ligands. If the
intended concentrations of 500 µM respective 2000 µM were reached the value is reported as >
500 µM or > 2000 µM. […]

β-catenin141–305 [2] = target: T1, β-catenin141–305 (Homo sapiens, UniProt P35222); test: Microscale Thermophoresis (MST) screening and Kd determination; type: binding
T1 construct: Amino acids 141-305 of uniprot ID: P35222; GST (cleaved yes); made in house; host or cells: E. coli BL21 (DE3)
T1 sequence (P35222 141-305): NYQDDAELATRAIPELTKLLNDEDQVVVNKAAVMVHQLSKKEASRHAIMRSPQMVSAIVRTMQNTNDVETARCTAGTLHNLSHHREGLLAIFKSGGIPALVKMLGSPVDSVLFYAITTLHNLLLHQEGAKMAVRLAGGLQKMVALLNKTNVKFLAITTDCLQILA
Experimental: buffer (Tris 25 mM, pH 7.5, NaCl 150 mM) containing 2% DMSO-d6. A stock solution of β-catenin135-663 (12.5 µM) was dialyzed before into Tris 25 mM pH 7.6 NaCl 150 mM and centrifuged at 4° C at 15000 rpm for 20 minutes. Intensity ratios Ilogsy/I1D are derived from scaling of the 1D intensity to the corresponding LOGSY intensity. STD GEMs were acquired with 1.5 µM […]
2.0; and 3.0 seconds for the saturation time build up curves to determine the initial rate constants2.
STD experiments were acquired with on and off resonance saturation at +0.1ppm and -40ppm respectively with 1048 scans each.
Solubility of compounds was determined in NMR buffer at pH 7.5 (see above) by integrating the signal of 250 µM maleic acid as an external standard relative to the integrals of the ligands. If the intended concentrations of 500 µM respective 2000 µM were reached the value is reported as > 500 µM or > 2000 µM. Compound 3 only reached a concentration of 1000 µM according to the QNMR experiment even though 2000 µM was intended, it’s solubility is therefore reported as […]
Microscale Thermophoresis.
Fluorescence labeling of β-catenin141-305 with the NT647 dye was achieved using the Monolith NT.115 Protein Labeling Kit RED-NHS according to the manufacturer’s protocol (NanoTemper Technologies, Munich, Germany). The BCL9 peptide was used as positive control for assay development to achieve a reliably detectable change in the thermophoretic mobility ( ΔFnorm). […]
Final assay conditions were 50 nM NT647 labeled β-catenin141-305 in PBS pH 6.8 supplemented with 100 mM NaNO3, 0.5 mM TCEP and 0.05% Tween-20 at 25° C. Fragment screening detected […]
by MST was carried out as previously described8,9. […] Manual inspection of all MST traces was used to reject non-standard traces stemming from protein aggregation, bleaching, or fluorescence quenching. ΔFnorm values (ΔFnorm=Fhot/Fcold) were calculated and the mean values of the duplicates were compared to the mean values of the DMSO negative control. […] Protein integrity over the entire FBS was monitored by the BCL9 peptide positive control. […]

β-catenin141–305 [3] = target: T1, β-catenin141–305; test: 2D 15N NMR (TROSY/HSQC/HMQC) detected binding and Kd titration
Experimental: The construct for expression of β-catenin141-305 (Amino acids 141-305 of uniprot ID: P35222) is based on the previously reported R4 construct1. The plasmid was used to transform E. coli, strain BL21 (DE3) cells (Invitrogen). For protein expression, an overnight culture in LB-medium supplemented ampicillin (100 µg/mL) at 37 °C was prepared and diluted the next day with fresh 2xYT-medium. At OD600 of 0.8 the culture was cooled down to 18 °C and after induction with 0.5 mM IPTG incubated for 20 h. Cell pellets obtained by centrifugation at 5000 rpm were stored at - 20 °C. Cells were solubilized in buffer A (2X Dulbecco’s PBS; 500 mM NaCl; 10 % Glycerol; 0.5 mM TCEP; cOmplete™ Protease Inhibitor Cocktail; pH 7.4) and disrupted by sonication (Sonopuls, Bandelin) on ice. After 30 min the sonicated lysate was clarified by centrifugation (50 min, 13500 rpm, 4 °C). The supernatant was mixed with 20 mL Glutathione Sepharose® 4B resin (GE Healthcare) slurry, washed in lysis buffer, and steered for 3 hours on ice. The beads were spun down, loaded into a XK16 column cartridge and washed with lysis buffer until baseline. The protein was eluted with buffer B (2X Dulbecco’s PBS; 500 mM NaCl; 10 % Glycerol; 0.5 mM TCEP;; pH 7.4) + 25 mM L-Glutathione reduced. After cleavage with 2000 units Human Alpha Thrombin (Enzyme Research Laboratories) at room temperature overnight, the protein was collected in the flow-through fraction of a second GST run (GSTrap HP 5 mL column; GE Healthcare) using buffer B. The flow-through was concentrated by centrifugation using an Amicon© Ultra 15 mL Centrifugal Filter (Merck Millipore) and loaded onto a HiLoad Superdex S75 column (GE Healthcare) equilibrated with 50 mM Tris; 200 mM NaCl; 3 mM DTT; pH 8.
Fractions were analyzed by SDS-PAGE and fractions containing the desired protein were pooled and concentrated with an Amicon© Ultra 15 mL Centrifugal Filter (Merck Millipore). […]
For confirmation of hits obtained from STD-NMR by 2D 15N TROSY NMR4 a Bruker Avance III 600 MHz instrument with a 5 mm cryo-TCI probe and z-gradient was used. The experimental set up (automated sample preparation and transfer into the magnet by a Tecan Freedom Evo pipetting robot and a Bruker Sample Rail system, respectively) was identical. Each sample contained 25 uM 15N labeled β-catenin141-305 25 mM sodium phosphate, 150 mM sodium chloride, 100 mM sodium nitrate, 0.5mM TCEP pH 6.8 in H2O at 25 °C and 8% (v/v) D2O. The protein was incubated with 500 uM fragment in a 2.5 mm NMR tube at 25 °C and a d6DMSO concentration of 1%. Spectra were recorded with 48 transients and 64 data points in the indirect dimension. Manual comparison of the spectrum in the presence of the to be tested fragment with the DMSO reference spectrum reveal either line broadening or chemical shift perturbation of cross peaks. Both effects are indicative for compound binding. All processing and analysis was done with the Topspin 2.1 software (Bruker BioSpin). Further spectral comparisons were performed with the FELIX software package (Felix NMR Inc.) to combine manual with automated analysis5. […]
700MHz spectrometer equipped with a cryogenically cooled 5mm TCI probe. […]
The
WaterLOGSY pulse sequence was used as described before7. Selective water inversion was achieved with a double excitation sculpting element employing water selective Gaussian refocusing pulses (inversion bandwidth of 0.5 ppm, pulse length of 7.5 ms). The number of scans was set to 2048. Sample concentrations were 0.5 mM ligand and 0.25–10 µM β-catenin135-663 in […]

β-catenin141–305 [4] = target: T1, β-catenin141–305; test: Surface Plasmon Resonance (SPR) Kd determination; type: binding; conditions: mean of three independent experiments ± SD; 1:1 steady-state fit
Experimental: Surface Plasmon Resonance (SPR)
A Biacore T200 instrument was used for SPR analysis, β-catenin141-305 was pre-diluted to a concentration of 0.1 mg/mL with 10 mM sodium acetate buffer, pH 5.0 and immobilized at a density of 6000 –7000 response units on flow cell 2 of a Biacore CM5 chip. Carbonic anhydraseII served as a reference protein on flow cell 3 and flow cell 1 was kept blank and used as the reference surface. A mixture of 20 mM Tris, pH 7.5, 150 mM NaCl, 0.5 mM TCEP, 0.005% Tween20, 2 % dimethyl sulfoxide was used as assay buffer. After pre -equilibration of the chip with 10 blank injections, the Kd measurements were performed by injecting a concentration series of analyte (9 concentrations, 1:1 dilutions). BCL9 347-392 served as a positive control. K d values were determined by global fitting of the steady-state response for each of the 9 concentrations to a 1:1 interaction model using the Biacore T200 evaluation software. Each compound was injected three times and […]
average Kd values were calculated from the repeats. The reported data are the mean values of three independent experiments ± standard deviations. […]
Glutamax Supplement (Thermo Fisher Scientific, 35050061) with 10% FCS (GE Healthcare, SH30071.03). Transfections were performed with Lipofectamine LTX Reagent (Thermo Fisher, 15338100) according the manufacturer’s instructions.

β-catenin = target: β-catenin; design: method as in PMID 11237626; conditions: read-out: binding affinity to β-catenin; cited from earlier work
[5] = 15N NMR titration, single titration, mean of curves of selected cross peaks ± SD, read-out: HSQC Kd

| Molecule | solubility [1] | Kd (β-catenin141–305 [3]; [5]) | Kd (β-catenin141–305 [4]) | further results |
| --- | --- | --- | --- | --- |
| CC1SCC(=O)Nc2cc(Cl)ccc21 (stereo not shown) [Compound 2] | > 500 µM |  |  | Kd (β-catenin141–305 [2]; 50 nM labeled β-catenin141–305, single titration): 820 ± 320 µM; MST binding signal ΔΔF nom (β-catenin141–305 [2]; 500 μM compound, 1 % DMSO, standard deviation with DMSO 1.8‰): 7.5 ‰ |
| CN1CC(c2ccccc2)Nc2ccccc2C1=O (stereo not shown) [Compound 3] | 1000 µM (≈ 252 µg/mL) | 1100 ± 255 µM |  |  |
| CN1C[C@@H](c2ccccc2)Oc2ccccc2C1=O [Compound 4] | > 2000 µM | 2260 ± 1260 µM | > 10000 µM |  |
| CN1C[C@H](c2ccccc2)Oc2ccccc2C1=O [Compound 5] | > 2000 µM | > 10000 µM | > 10000 µM |  |
| TCF4: transcription factor, natural binding partner of β-catenin |  |  |  | Kd (β-catenin): ~0.02 µM |

Continued, in another order:

| solubility [1] | Kd (β-catenin141–305 [3]; [5]) | Kd (β-catenin141–305 [4]) | Molecule | further results |
| --- | --- | --- | --- | --- |
| > 2000 µM | 915 ± 303 µM | 1390 ± 46 µM | CN1C[C@@H](c2cccc(C#N)c2)Oc2ccccc2C1=O [Compound 6] | Kd (β-catenin141–305 [3]; titration curve of single cross peak D207, read-out: NMR Kd, cross peak D207): 1010 µM; Kd (β-catenin141–305 [3]; titration curve of single cross peak G245, read-out: NMR Kd, cross peak G245): 575 µM; Kd (β-catenin141–305 [3]; titration curve of single cross peak V208, read-out: NMR Kd, cross peak V208): 1160 µM |
| > 2000 µM | > 10000 µM | > 10000 µM | CN1C[C@H](c2cccc(C#N)c2)Oc2ccccc2C1=O [Compound 7] | chemical shift perturbations (CSPs) in 2D 15N NMR (β-catenin141–305 [3]; 500 μM compound): did not show any CSPs |
